# Tested on: human myeloma cell line MM.1S
# Test: CNP analysis: acetylated peptides in cytoplasm (C), soluble nuclear extract (N), insoluble nuclear pellet (P) of Compound B treated cells
# Type: cell-based
# Conditions: for change in quantity of acetylated peptide, C / fold change in quantity of acetylated peptide, C: cytoplasm (C), normalized to total (C+N+P); for C: change in quantity of acetylated peptide normalized to total (C+N+P) / C: fold change in quantity of acetylated peptide normalized to total (C+N+P): cytoplasm fraction; for P: change in quantity of acetylated peptide normalized to total (C+N+P) / P: fold change in quantity of acetylated peptide normalized to total (C+N+P): insoluble nuclear pellet; for N: change in quantity of acetylated peptide normalized to total (C+N+P) / N: fold change in quantity of acetylated peptide normalized to total (C+N+P): soluble nuclear extract
# Method: This example describes the CNP analysis that was performed on Compound B treated cells from Example 1.
# The SILAC method was performed as described in Example 1.
# The harvested “heavy” and “light” labeled cells were initially lysed with 2×NETN buffer (200 mM NaCl, 100 mM Tris-Cl, 2 mM EDTA, 1.0% NP-40, pH 7.2) on ice for 15 min, respectively. The supernatants were saved after 20,000×g centrifugation for 10 minutes at 4° C. After measurement of the protein concentration in “heavy” or “light” labeled supernatants, equal amounts of crude proteins in supernatant were mixed, and the crude proteins were precipitated by adding trifluoroacetic acid (TFA) with 15% final concentration (v/v) (this was called the cytosolic fraction). After washing twice with −20° C. acetone, the proteins pellets were dissolved in 100 mM NH4HCO3 (pH 8.0) for trypsin digestion.
# The remaining cell pellets were further lysed with 1×ETN buffer (100 mM NaCl, 50 mM Tris-Cl, 1 mM EDTA, pH 7.2) supplemented with 0.5% Triton X-100 on ice for 15 min, respectively. The resulting lysates were clarified by 20,000×g centrifugation for 10 minutes, and the supernatant was saved as nuclear extracts fractions. After measurement of the protein concentration in “heavy” or “light” labeled supernatant, equal amount of crude proteins in supernatant were mixed, and the crude proteins were precipitated by adding trifluoroacetic acid (TFA) with 15% final concentration (v/v) (this was called the nuclear extracts fraction). After washing twice with −20° C. acetone, the proteins pellets were dissolved in 100 mM NH4HCO3 (pH 8.0) for trypsin digestion.
# The final remaining cell pellets were dissolved in 8 M urea to extract the chromatin-binding proteins. After measurement of protein concentration, equal amount of chromatin-binding proteins in urea solution were mixed, and the proteins were precipitated by adding trifluoroacetic acid (TFA) with 15% final concentration (v/v) (this was called the nuclear pellet fraction). After washing twice with −20° C. acetone, the proteins pellets were dissolved in 100 mM NH4HCO3 for trypsin digestion.
# After trypsin digestion for the above three fractions, the Kac affinity enrichment followed by MS analysis and data inquiry were separately performed. The combined Kac data formed the total Kac profiling data in the pair of Compound B vs DMSO.
# Compound B treated cell lysate was fractionated into three subcellular fractions—cytoplasm (C), soluble nuclear extract (N), and insoluble nuclear pellet (P), as described above. Any peptides identified as HDAC6 specific in Example 1 with this subcellular localization information was extremely helpful for understanding their functions inside cells.
# The third, fourth, and fifth columns of Table 2 show data for Compound B. A “+” indicates a 1.3 fold change or greater in the quantity of peptide when normalized to the total (C+N+P=total) for each peptide for each drug treated group of cells. A “−” indicates a 1.29 fold change or less in the quantity of peptide when normalized to the total (C+N+P=total) for each peptide for each drug treated group of cells. “None” indicates unknown.
# The sixth, seventh, and eighth columns of Table 2 show data for Compound B. The numbers in these columns represent the fold change in the quantity of peptide when normalized to the total (C+N+P=total) for each peptide for each drug treated group of cells. The numbers are in a log 2 scale so 1 represents a 2× change, 0 represents no change, and None represents unknown.
# [1] = peptide AVLIDK(ac)DQSPK (SEQ ID NO: 577), gene HIBCH
# [2] = peptide CSK(ac)LPSSTK(ac)SGWPR (SEQ ID NO: 711), gene PHF15
# [3] = peptide DFGSFDK(ac)FK (SEQ ID NO: 709), gene SOD2
# [4] = peptide INKALDK(ac)TK (SEQ ID NO: 802), gene MYH9
# [5] = peptide K(ac)AINK(ac)AQK (SEQ ID NO: 793), gene HIST1H2BM
# [6] = peptide KGEDFVK(ac)TLK (SEQ ID NO: 750), gene MDH2
# [7] = peptide LENDK(ac)SFR (SEQ ID NO: 678), gene ECI1
# [8] = peptide SELTGK(ac)FEK (SEQ ID NO: 778), gene ANXA5
smiles,measurement,setting,value
"O=C(NO)c1cnc(NC2(c3cccc(F)c3)CCCCC2)nc1 [Compound B, 2-((1-(3-fluorophenyl)cyclohexyl)amino)-N-hydroxypyrimidine-5-carboxamide]","change in quantity of acetylated peptide, C",[1],− (A “−” indicates a 1.29 fold change or less in the quantity of peptide when normalized to the total (C+N+P=total))
same,"fold change in quantity of acetylated peptide, C",[1],0.00 log 2
same,"change in quantity of acetylated peptide, C","peptide FYK(ac)DVLEVGELAK (SEQ ID NO: 596), gene NAA50",− (A “−” indicates a 1.29 fold change or less in the quantity of peptide when normalized to the total (C+N+P=total))
same,"fold change in quantity of acetylated peptide, C","peptide FYK(ac)[…] (SEQ ID NO: 596), gene NAA50",0.12 log 2
same,"fold change in quantity of acetylated peptide, C","peptide NCSSFLIK(ac)R (SEQ ID NO: 558), gene RPL28",0.05 log 2
same,"change in quantity of acetylated peptide, C","peptide VTCIDPNPNFEK(ac)FLIK (SEQ ID NO: 671), gene METTL7A",+ (A “+” indicates a 1.3 fold change or greater in the quantity of peptide when normalized to the total (C+N+P=total))
same,"fold change in quantity of acetylated peptide, C","peptide […](ac)FLIK (SEQ ID NO: 671), gene METTL7A",0.44 log 2
same,"fold change in quantity of acetylated peptide, C","peptide […](ac)QNK (SEQ ID NO: 650), gene DLD",0.18 log 2
same,C: change in quantity of acetylated peptide normalized to total (C+N+P),[2],− (A “−” indicates a 1.29 fold change or less in the quantity of peptide when normalized to the total (C+N+P=total))
same,C: fold change in quantity of acetylated peptide normalized to total (C+N+P),[2],0.11 log 2 scale
same,P: change in quantity of acetylated peptide normalized to total (C+N+P),[2],+ (A “+” indicates a 1.3 fold change or greater in the quantity of peptide when normalized to the total (C+N+P=total))
same,P: fold change in quantity of acetylated peptide normalized to total (C+N+P),[2],0.43 log 2 scale
same,N: change in quantity of acetylated peptide normalized to total (C+N+P),[2],− (A “−” indicates a 1.29 fold change or less in the quantity of peptide when normalized to the total (C+N+P=total))
same,N: fold change in quantity of acetylated peptide normalized to total (C+N+P),[2],0.04 log 2 scale
same,C: change in quantity of acetylated peptide normalized to total (C+N+P),[3],− (A “−” indicates a 1.29 fold change or less in the quantity of peptide when normalized to the total (C+N+P=total))
same,C: fold change in quantity of acetylated peptide normalized to total (C+N+P),[3],−0.28 log 2 scale
same,P: change in quantity of acetylated peptide normalized to total (C+N+P),[3],− (A “−” indicates a 1.29 fold change or less in the quantity of peptide when normalized to the total (C+N+P=total))
same,N: change in quantity of acetylated peptide normalized to total (C+N+P),[3],+ (A “+” indicates a 1.3 fold change or greater in the quantity of peptide when normalized to the total (C+N+P=total))
same,N: fold change in quantity of acetylated peptide normalized to total (C+N+P),[3],−0.48 log 2 scale
same,C: change in quantity of acetylated peptide normalized to total (C+N+P),[4],− (A “−” indicates a 1.29 fold change or less in the quantity of peptide when normalized to the total (C+N+P=total))
same,P: change in quantity of acetylated peptide normalized to total (C+N+P),[4],− (A “−” indicates a 1.29 fold change or less in the quantity of peptide when normalized to the total (C+N+P=total))
same,N: change in quantity of acetylated peptide normalized to total (C+N+P),[4],+ (A “+” indicates a 1.3 fold change or greater in the quantity of peptide when normalized to the total (C+N+P=total))
same,N: fold change in quantity of acetylated peptide normalized to total (C+N+P),[4],4.75 log 2 scale
same,C: change in quantity of acetylated peptide normalized to total (C+N+P),[5],− (A “−” indicates a 1.29 fold change or less in the quantity of peptide when normalized to the total (C+N+P=total))
same,P: change in quantity of acetylated peptide normalized to total (C+N+P),[5],− (A “−” indicates a 1.29 fold change or less in the quantity of peptide when normalized to the total (C+N+P=total))
same,P: fold change in quantity of acetylated peptide normalized to total (C+N+P),[5],0.27 log 2 scale
same,N: change in quantity of acetylated peptide normalized to total (C+N+P),[5],+ (A “+” indicates a 1.3 fold change or greater in the quantity of peptide when normalized to the total (C+N+P=total))
same,N: fold change in quantity of acetylated peptide normalized to total (C+N+P),[5],−0.97 log 2 scale
same,C: change in quantity of acetylated peptide normalized to total (C+N+P),[6],− (A “−” indicates a 1.29 fold change or less in the quantity of peptide when normalized to the total (C+N+P=total))
same,C: fold change in quantity of acetylated peptide normalized to total (C+N+P),[6],0.15 log 2 scale
same,P: change in quantity of acetylated peptide normalized to total (C+N+P),[6],− (A “−” indicates a 1.29 fold change or less in the quantity of peptide when normalized to the total (C+N+P=total))
same,N: change in quantity of acetylated peptide normalized to total (C+N+P),[6],+ (A “+” indicates a 1.3 fold change or greater in the quantity of peptide when normalized to the total (C+N+P=total))
same,N: fold change in quantity of acetylated peptide normalized to total (C+N+P),[6],0.49 log 2 scale
same,C: change in quantity of acetylated peptide normalized to total (C+N+P),[7],− (A “−” indicates a 1.29 fold change or less in the quantity of peptide when normalized to the total (C+N+P=total))
same,C: fold change in quantity of acetylated peptide normalized to total (C+N+P),[7],0.12 log 2 scale
same,P: change in quantity of acetylated peptide normalized to total (C+N+P),[7],− (A “−” indicates a 1.29 fold change or less in the quantity of peptide when normalized to the total (C+N+P=total))
same,N: change in quantity of acetylated peptide normalized to total (C+N+P),[7],+ (A “+” indicates a 1.3 fold change or greater in the quantity of peptide when normalized to the total (C+N+P=total))
same,N: fold change in quantity of acetylated peptide normalized to total (C+N+P),[7],−0.38 log 2 scale
same,C: change in quantity of acetylated peptide normalized to total (C+N+P),[8],− (A “−” indicates a 1.29 fold change or less in the quantity of peptide when normalized to the total (C+N+P=total))
same,C: fold change in quantity of acetylated peptide normalized to total (C+N+P),[8],0.31 log 2 scale
same,P: change in quantity of acetylated peptide normalized to total (C+N+P),[8],− (A “−” indicates a 1.29 fold change or less in the quantity of peptide when normalized to the total (C+N+P=total))
same,N: change in quantity of acetylated peptide normalized to total (C+N+P),[8],+ (A “+” indicates a 1.3 fold change or greater in the quantity of peptide when normalized to the total (C+N+P=total))
same,N: fold change in quantity of acetylated peptide normalized to total (C+N+P),[8],0.40 log 2 scale
